Reference: patent US20240067639A1, “SMALL MOLECULES THAT TARGET THE RNA THAT CAUSES ALS” (EXPANSION THERAPEUTICS, INC., priority 2020, published 2024)
pKi: −log10 of the molar value. Where two headings read alike, the source gives them in different places.

What was measured:
[1] = biological target: biotinylated r(G4C2)8 RNA and hnRNP H1-His6; test: TR-FRET hnRNP H binding assay
Procedure: TR-FRET hnRNP H Binding Assay. The TR-FRET assays were performed as previously described (Disney et al., 2012) except the final concentrations of biotinylated r(G4C2)8 (SEQ ID NO: 2) RNA and hnRNP H1-His6 were 80 nM and 75 nM, respectively. The RNA was folded by heating to 95° C. for 5 min in 1× Folding Buffer followed by slowly cooling to room temperature. The buffer was adjusted to 1×TR-FRET Assay Buffer followed by addition of compound. The mixture was incubated for 15 min at room temperature and then hnRNP H1-His6 was added. After an additional 15 min incubation, streptavidin-XL665 (HTRF, Cisbio Bioassays) and anti-His6-Tb (HTRF, Cisbio Bioassays) were added to a final concentration of 40 nM and 0.44 ng/μL, respectively. After incubating for 1 h, TR-FRET was measured as previously described. The IC50s were either calculated by fitting the equation (1) in Graphpad Prism.

[2] = system: RAN translation of (G4C2)66-No ATG-GFP in HEK293T cells; test: Cell-based assay of RAN translation inhibition (GFP/mCherry reporter); conditions: Homo sapiens, HEK-293T, 24 h, read-out: RANT IC25
[3] = Table D, HEK293T, 24 h treatment
[4] = Table F, HEK293T, 24 h treatment

SMILES	pKi ([1]; Table D)	pKi ([1]; Table F)	further results
COc1ccc2c(c1)c1cc3cnccc3c(C)c1n2C [Compound 1, 9-methoxy-5,6-dimethyl-6H-pyrido[4,3-b]carbazole]	< 3.70	–	IC25 [2, 3]: > 5 µM
Cc1c2ccncc2cc2c3cc(OCC4=NCCN4)ccc3n(C)c12 [Compound 3, 9-((4,5-dihydro-1H-imidazol-2-yl)methoxy)-5,6-dimethyl-6H-pyrido[4,3-b] carbazole]	5.08	–	IC25 [2, 3]: 0.1 µM
Cc1c2ccncc2cc2c3cc(OCC(=O)NCCN)ccc3n(C)c12 [Compound 4a, N-(2-aminoethyl)-2-((5,6-dimethyl-6H-pyrido[4,3-b]carbazol-9-yl)oxy)acetamide]	5.35	–	IC25 [2, 3]: 0.9 µM
Cc1c2ccncc2cc2c3cc(OCCN(C)C)ccc3n(C)c12 [Compound 5]	4.70	–	IC25 [2, 3]: 0.5 µM
Cc1c2ccncc2cc2c3cc(OCCCN(C)C)ccc3n(C)c12 [Compound 6, 3-((5,6-dimethyl-6H-pyrido[4,3-b]carbazol-9-yl)oxy)-N,N-dimethylpropan-1-amine]	4.49	–	IC25 [2, 3]: > 5 µM
Cc1c2ccncc2cc2c3cc(OCCCN4CCOCC4)ccc3n(C)c12 [Compound 8, 4-(3-((5,6-dimethyl-6H-pyrido[4,3-b]carbazol-9-yl)oxy)propyl)morpholine]	4.96	–	IC25 [2, 3]: 0.36 µM
Cc1c2ccncc2cc2c3cc(OCCCN4CCCC4)ccc3n(C)c12 [Compound 9, 5,6-dimethyl-9-(3-(pyrrolidin-1-yl)propoxy)-6H-pyrido[4,3-b]carbazole]	5.00	–	IC25 [2, 3]: 0.27 µM
CCN(CC)CCCOc1ccc2c(c1)c1cc3cnccc3c(C)c1n2C [Compound 10, 3-((5,6-dimethyl-6H-pyrido[4,3-b]carbazol-9-yl)oxy)-N,N-diethylpropan-1-amine]	5.14	–	IC25 [2, 3]: 3.2 µM
Cc1c2ccncc2cc2c3cc(OCCN4CCOCC4)ccc3n(C)c12 [Compound 11, 4-(2-((5,6-dimethyl-6H-pyrido[4,3-b]carbazol-9-yl)oxy)ethyl)morpholine]	4.80	–	IC25 [2, 3]: 0.4 µM
Cc1c2ccncc2cc2c3cc(OCC(N)=O)ccc3n(C)c12 [Compound 12, 2-((5,6-dimethyl-6H-pyrido[4,3-b]carbazol-9-yl)oxy)acetamide]	4.74	–	IC25 [2, 3]: 0.3 µM
Cc1c2ccncc2cc2c3cc(OCCCN4CCN(C)CC4)ccc3n(C)c12 [Compound 23, 5,6-dimethyl-9-(3-(4-methylpiperazin-1-yl)propoxy)-6H-pyrido[4,3-b]carbazole]	5.03	–	IC25 [2, 3]: > 5 µM
Cc1c2ccncc2cc2c3cc(C(=O)NCCN4CCCCC4)ccc3n(C)c12 [Compound 213, 5,6-dimethyl-N-(2-(piperidin-1-yl)ethyl)-6H-pyrido[4,3-b]carbazole-9-carboxamide]	–	5.92	IC25 [2, 4]: 1.7 µM
Cc1c2ccncc2cc2c3cc(C(=O)NCCO)ccc3n(C)c12 [Compound 214, N-(2-hydroxyethyl)-5,6-dimethyl-6H-pyrido[4,3-b]carbazole-9-carboxamide]	–	5.44	IC25 [2, 4]: 1 µM
COCCNC(=O)c1ccc2c(c1)c1cc3cnccc3c(C)c1n2C [Compound 215, N-(2-methoxyethyl)-5,6-dimethyl-6H-pyrido[4,3-b]carbazole-9-carboxamide]	–	4.92	IC25 [2, 4]: > 5 µM
Cc1c2ccnc(C3CCCO3)c2cc2c3cc(C(=O)NCCN(C)C)ccc3n(C)c12 (centres unmarked) [Compound 216, N-(2-(dimethylamino)ethyl)-5,6-dimethyl-1-(tetrahydrofuran-2-yl)-6H-pyrido[4,3-b]carbazole-9-carboxamide]	–	5.16	IC25 [2, 4]: 1.7 µM
Cc1c2ccncc2cc2c3cc(OCCN4CCS(=O)(=O)CC4)ccc3n(C)c12 [Compound 217, 4-(2-((5,6-dimethyl-6H-pyrido[4,3-b]carbazol-9-yl)oxy)ethyl)thiomorpholine 1,1-dioxide]	–	5.07	IC25 [2, 4]: > 5 µM
Cc1c2ccncc2cc2c3cc(OC[C@H](C)N)ccc3n(C)c12 [Compound 218, (S)-1-((5,6-dimethyl-6H-pyrido[4,3-b]carbazol-9-yl)oxy)propan-2-amine]	–	6.10	IC25 [2, 4]: 0.84 µM
Cc1c2ccncc2cc2c3cc(OCCN4CCCCCC4)ccc3n(C)c12 [Compound 219, 9-(2-(azepan-1-yl)ethoxy)-5,6-dimethyl-6H-pyrido[4,3-b]carbazole]	–	5.92	IC25 [2]: > 5 µM
Cc1c2ccncc2cc2c3cccc(OCCN(C)C)c3n(C)c12 [Compound 220, 2-((5,6-dimethyl-6H-pyrido[4,3-b]carbazol-7-yl)oxy)-N,N-dimethylethanamine]	–	5.64	IC25 [2]: > 5 µM
Cc1c2ccnc(C(=O)N[C@H](C)CN(C)C)c2cc2c3ccc(OCCCN4CCN(C)CC4)cc3n(C)c12 [Compound 222, (R)—N-(1-(dimethylamino)propan-2-yl)-5,6-dimethyl-8-(3-(4-methylpiperazin-1-yl)-propoxy)-6H-pyrido[4,3-b]carbazole-1-carboxamide]	–	5.21	IC25 [2, 4]: > 5 µM

SMILES	pKi ([1]; Table D)	pKi ([1]; Table F)	further results
Cc1c2ccncc2cc2c3cc(OCCN4CCC(C)(C)CC4)ccc3n(C)c12 [Compound 223, 9-(2-(4,4-dimethylpiperidin-1-yl)ethoxy)-5,6-dimethyl-6H-pyrido[4,3-b]carbazole]	–	5.51	IC25 [2, 4]: 3.8 µM
Cc1c2ccncc2cc2c1sc1ccc(OCCN(C)C)cc12 [Compound 224, N,N-dimethyl-2-((5-methylbenzo[4,5]thieno[2,3-g]isoquinolin-9-yl)oxy)ethanamine]	–	5.07	IC25 [2]: > 5 µM
Cc1c2ccncc2cc2c3cc(OCCN4CCC(C)CC4)ccc3n(C)c12 [Compound 227, 5,6-dimethyl-9-(2-(4-methylpiperidin-1-yl)ethoxy)-6H-pyrido[4,3-b]carbazole]	–	5.85	IC25 [2]: > 5 µM
Cc1c2ccncc2cc2c3cc(OCCN4CCC(F)CC4)ccc3n(C)c12 [Compound 229, 9-(2-(4-fluoropiperidin-1-yl)ethoxy)-5,6-dimethyl-6H-pyrido[4,3-b]carbazole]	–	5.38	IC25 [2]: 2.2 µM
Cc1c2ccncc2cc2c3cc(OC[C@H](C)N(C)C)ccc3n(C)c12 [Compound 230, (S)-1-((5,6-dimethyl-6H-pyrido[4,3-b]carbazol-9-yl)oxy)-N,N-dimethylpropan-2-amine]	–	5.92	IC25 [2, 4]: 4.3 µM
Cc1c2ccncc2cc2c1oc1ccc(OCCN3CCOCC3)cc12 [Compound 231, 5-methyl-9-(2-morpholinoethoxy)benzofuro[2,3-g]isoquinoline]	–	< 3.70	IC25 [2]: > 5 µM
Cc1c2ccncc2cc2c3cccc(OCC4=NCCN4)c3n(C)c12 [Compound 232, 7-((4,5-dihydro-1H-imidazol-2-yl)methoxy)-5,6-dimethyl-6H-pyrido[4,3-b]carbazole]	–	5.70	IC25 [2, 4]: > 5 µM
Cn1c2ccc(OCC3=NCCN3)cc2c2cc3cnccc3cc21 [Compound 234, 9-((4,5-dihydro-1H-imidazol-2-yl)methoxy)-6-methyl-6H-pyrido[4,3-b]carbazole]	–	6.10	IC25 [2, 4]: 0.65 µM
Cc1c2ccncc2cc2c3cc(OCCN4CCOCC4)ccc3n(C(C)C)c12 [Compound 235, 4-(2-((6-isopropyl-5-methyl-6H-pyrido[4,3-b]carbazol-9-yl)oxy)ethyl)morpholine]	–	< 3.70	IC25 [2]: > 5 µM
COc1ccc2[nH]c3c(c2c1)C(=O)c1cnccc1C3=O [Example 47, 9-methoxy-5H-pyrido[4,3-b]carbazole-5,11(6H)-dione]	< 3.70	–	–
COc1ccc2[nH]c3c(C)c4ccncc4c(O)c3c2c1 [Example 48, 9-methoxy-5-methyl-6H-pyrido[4,3-b]carbazol-11-ol]	< 3.70	–	–
COc1ccc2[nH]c3c(C)c4cnccc4cc3c2c1 [Example 49, 7-methoxy-11-methyl-10H-pyrido[3,4-b]carbazole]	< 3.70	–	–
Cc1c2ccncc2cc2c3ccc(OCCN4CCOCC4)cc3n(C)c12 [Example 53, 4-(2-((5,6-dimethyl-6H-pyrido[4,3-b]carbazol-8-yl)oxy)ethyl)morpholine]	< 3.70	–	–
Cc1c2ccncc2cc2c3cc(OCC(=O)NCCCN(C)C)ccc3n(C)c12 [Example 58, 2-((5,6-dimethyl-6H-pyrido[4,3-b]carbazol-9-yl)oxy)-N-(3(dimethylamino)propyl)-acetamide]	6.00	–	–
Cc1c2ccncc2cc2c3cc(OCC(=O)NCCN(C)C)ccc3n(C)c12 [Example 59, 2-((5,6-dimethyl-6H-pyrido[4,3-b]carbazol-9-yl)oxy)-N-(2-(dimethylamino)ethyl)-acetamide]	5.89	–	–
COc1cccc2c1c1cc3c(C(=O)N[C@H](C)CN(C)C)nccc3c(C)c1n2C [Example 65, (R)—N-(1-(dimethylamino)propan-2-yl)-10-methoxy-5,6-dimethyl-6H-pyrido[4,3-b]carbazole-1-carboxamide]	5.38	–	–
COc1ccc2oc3c(C)c4ccncc4cc3c2c1 [Example 66, 9-methoxy-5-methyl-benzofuro[2,3-g]isoquinoline]	< 3.70	–	–
COc1ccc2sc3c(C)c4ccncc4cc3c2c1 [Example 67, 9-methoxy-5-methyl-benzothiopheno[2,3-g]isoquinoline]	< 3.70	–	–
Cc1c2ccncc2cc2c1sc1ccc(OCCN3CCOCC3)cc12 [Example 81, 4-[2-(5-methylbenzothiopheno[2,3-g]isoquinolin-9-yl)oxyethyl]morpholine]	< 3.70	–	–
